Measured values: patent US20230414735A1, “NEOANTIGENS AND METHODS OF THEIR USE” (priority 2016, published 2023)
Like-named read-outs stand apart in the source and are kept apart here. Where no end group is shown, it is not given here.

What was measured:
HLA class I molecule = test: HLA class I peptide binding affinity assay (inhibition of 125I-radiolabeled probe peptide binding to purified HLA); set-up: species or system human; conditions: read-out: Observed Affinity (IC50, (nM))
Description: Epstein-Barr virus (EBV)-transformed homozygous cell lines, fibroblasts, CIR, or 721.22 transfectants are used as sources of HLA class I molecules. […] HLA molecules are purified from lysates by affinity chromatography. The lysates are passed over a column of Sepharose CL-4B beads coupled to an appropriate antibody. […] A 1/25 volume of 2.0 M Tris, pH 6.8, is added to the eluate to reduce the pH to […]. Eluates are then concentrated by centrifugation in Centriprep 30 concentrators (Amicon, Beverly, MA). Protein content is evaluated by a BCA protein assay (Pierce Chemical Co., Rockford, IL) and confirmed by SDS-PAGE.
Following incubation, MHC-peptide complexes are separated from free peptide by gel filtration on 7.8 mm×15 cm TSK200 columns (TosoHaas 16215, Montgomeryville, PA). Because the large size of the radiolabeled peptide used for the DRB1*1501 (DR2w2(31) assay makes separation of bound from unbound peaks more difficult under these conditions, all DRB1*1501 (DR2w2(31) assays were performed using a 7.8 mm×30 cm TSK2000 column eluted at 0.6 mLs/min. The eluate from the TSK columns is passed through a Beckman 170 radioisotope detector, and radioactivity is plotted and integrated using a Hewlett-Packard 3396A integrator, and the fraction of peptide bound is determined.
Radiolabeled peptides are iodinated using the chloramine-T method. […] All subsequent inhibition and direct binding assays are performed using these HLA concentrations.
Since under these conditions [label]<[HLA] and IC50≥[HLA], the measured IC50 values are reasonable approximations of the true KD values. […] For database purposes, and inter-experiment comparisons, relative binding values are compiled. These values can subsequently be converted back into IC50 nM values by dividing the IC50 nM of the positive controls for inhibition by the relative binding of the peptide of interest.
HLA binding assays were used to evaluate either the affinity of interaction of a given epitope with a selected HLA molecule or the stability.
The measurements are plotted against the predicted affinity in FIG. 1.

HLA Class I molecules = test: HLA class I binding stability assay (pMHC-I complex dissociation, 125I-labeled β2m, scintillation counts); set-up: species or system human
[1] = test system: HLA-A02:01+ T cells (CD8+ T cells); test: Immunogenicity assay: CD8+ T cell expansion with peptide-loaded monocyte-derived dendritic cells, multimer/tetramer staining; type: cell-based, human; conditions: HLA-A02:01^+ T cells co-cultured 10 days with peptide-loaded monocyte-derived dendritic cells; initial and validation multimer preparations; shown as examples of positive multimer staining (FIGS. 3-6)
[2] = test system: ovarian carcinoma patients; conditions: ovarian carcinoma patients immunized with poly-ICLC in combination with a NYESO-1 peptide vaccine (in addition to Montanide); phase 1 study; cited from earlier work
[3] = allele A02.01, pMHC-I dissociation at 37° C.
[4] = allele A24.02, pMHC-I dissociation at 37° C.

| IC50 (HLA class I molecule; allele A02.01) [nM] | Stability (T1/2 (h)) (HLA Class I molecules; allele A02.01, 37° C.) [h] | Stability (T1/2 (h)) (HLA Class I molecules; [3]) [h] | Molecule | also measured |
| --- | --- | --- | --- | --- |
| 6 | – | 14.3 | KLFSCLSFL | Stability (T1/2 (h)) (HLA Class I molecules; allele A03.01, pMHC-I dissociation at 37° C.): 0.8 h |
| 223 | – | 0.5 | ILMELMAGG | – |
| 177 | – | 0.4 | CC[C@H](C)[C@H](NC(=O)[C@@H](N)CC(C)C)C(=O)N[C@@H](CCSC)C(=O)N[C@@H](CCC(N)=O)C(=O)N[C@@H](CC(C)C)C(=O)N[C@@H](CCSC)C(=O)N1CCC[C@H]1C(=O)N[C@@H](Cc1ccccc1)C(=O)NCC(=O)N[C@@H](CS)C(=O)O | – |
| 640 | – | 0.7 | PLYGLLLEM | – |
| 101 | – | 0.3 | KGPELFPLI | IC50 (HLA class I molecule; allele A24.02): 14 nM; Stability (T1/2 (h)) (HLA Class I molecules; [4]): 1.7 h |
| 295 | 1.1 | – | VLTVTSTDV | – |
| 72 | – | 11 | VLLSVHLIV | – |
| 226 | 0.8 | – | ALSASNSCFI | – |
| – | – | – | ALNSEALSV [HLA-A02:01] | antigen-specific (multimer-double-positive) CD8^+ T cells, multimer staining [1]: antigen-specificity |
| 45 | 2.5 | – | LLQEFDVQEA | – |
| 14 | 4 | – | WMTETLFDI | – |
| 68 | – | 1.5 | LQMDFLVHPA | – |
| 3 | 6.8 | – | FSGEYIPTV | – |
| 68 | 12.8 | – | LLAFWDSQV | – |
| 131 | 1.9 | – | VLHESNSPYI | – |
| 44 | 7.4 | – | CC(C)C[C@H](NC(=O)CN)C(=O)N[C@H](C(=O)N[C@@H](CC(=O)O)C(=O)N[C@@H](CCC(=O)O)C(=O)N[C@@H](CCC(N)=O)C(=O)N[C@@H](CCC(N)=O)C(=O)N[C@@H](CCC(=O)O)C(=O)N[C@H](C(=O)O)C(C)C)C(C)C | – |
| 187 | 0.9 | – | CC(C)[C@H](N)C(=O)N[C@H](C(=O)N1CCC[C@H]1C(=O)N[C@@H](CS)C(=O)N[C@@H](CCC(=O)O)C(=O)N1CCC[C@H]1C(=O)N1CCC[C@H]1C(=O)N[C@@H](CCC(=O)O)C(=O)N[C@H](C(=O)O)C(C)C)C(C)C | – |
| 1200 | – | 0.4 | GVYTFLPSTL | – |
| 779 | – | 1.3 | GVYTFLPST | – |
| 151 | – | 4.2 | PLNDLLLEM | – |
| 15 | 2.9 | – | CC(C)C[C@H](NC(=O)[C@H](C)N)C(=O)N[C@@H](CC(N)=O)C(=O)N[C@@H](CO)C(=O)N[C@@H](CCC(=O)O)C(=O)N[C@@H](C)C(=O)N[C@@H](CC(C)C)C(=O)N[C@@H](CO)C(=O)N[C@H](C(=O)N[C@H](C(=O)O)C(C)C)C(C)C | – |
| 602 | – | 0.8 | PLCDLLLEM | – |
| 2060 | – | – | YLVIQLQDKF | IC50 (HLA class I molecule; allele A24.02): 2150 nM; Stability (T1/2 (h)) (HLA Class I molecules; [4]): 2.6 h |
| 79 | 27.3 | – | ALSEHCPTT | – |
| 404 | – | 2.7 | PLSDLLLEM | – |
| 2 | 16.5 | – | VMAYVMAGV | – |

| IC50 (HLA class I molecule; allele A02.01) [nM] | Stability (T1/2 (h)) (HLA Class I molecules; allele A02.01, 37° C.) [h] | Stability (T1/2 (h)) (HLA Class I molecules; [3]) [h] | Molecule | also measured |
| --- | --- | --- | --- | --- |
| 1610 | – | 0.4 | IMQLMPFGC | – |
| – | – | – | LLCVWVSSI [HLA-A02:01] | antigen-specific (multimer-double-positive) CD8^+ T cells, multimer staining [1]: antigen-specificity |
| 1030 | 0.4 | – | MNWRPILTII | – |
| 31 | 9.8 | – | SMLTDSLFL | – |
| 2010 | – | 0.9 | PLCDLLLEML | – |
| 311 | – | 8.9 | LMELMAGGDL | – |
| 102 | 2.9 | – | VMAGLGSPYV | – |
| 1040 | – | 0.6 | CC(C)C[C@H](NC(=O)[C@H](CC(C)C)NC(=O)[C@H](CC(C)C)NC(=O)CNC(=O)[C@H](Cc1ccc(O)cc1)NC(=O)[C@H](CC(C)C)NC(=O)[C@@H]1CCCN1C(=O)[C@@H](NC(=O)[C@@H](N)C(C)C)C(C)C)C(=O)O | – |
| 40 | 0.4 | – | WMTETLFDIV | IC50 (HLA class I molecule; allele A01.01): 14400 nM |
| – | – | – | SMLTGPPARV [HLA-A02:01] | antigen-specific (multimer-double-positive) CD8^+ T cells, multimer staining [1]: antigen-specificity |
| 390 | 0.4 | – | SLYIVGFYGA | – |
| – | – | – | poly-ICLC | patients showing induction of CD4+ and CD8+ T cell, as well as antibody responses to the peptide [2]: > 90% |
| 10 | 5.1 | – | VLHECNSLYI | – |
| – | 1 | – | CC[C@H](C)[C@H](NC(=O)[C@H](CCC(N)=O)NC(=O)[C@@H](N)CO)C(=O)N[C@@H](CCSC)C(=O)N[C@@H](CO)C(=O)N[C@@H](CC(C)C)C(=O)N[C@@H](Cc1c[nH]c2ccccc12)C(=O)NCC(=O)N[C@@H](CC(C)C)C(=O)O | – |
| – | 2.5 | – | CSCC[C@H](NC(=O)[C@@H](NC(=O)[C@H](Cc1ccc(O)cc1)NC(=O)[C@H](C)NC(=O)[C@H](CCSC)NC(=O)[C@@H](NC(=O)[C@@H](N)Cc1ccc(O)cc1)C(C)C)C(C)C)C(=O)N[C@@H](C)C(=O)NCC(=O)O | Stability (T1/2 (h)) (HLA Class I molecules; allele B08.01, 37° C.): 1.2 h |
| 10 | 14.2 | – | GLLAFWDSQV | – |
| 558 | – | 0.4 | GLLLEMLDA | – |
| 219 | – | 24 | CLADVLLSV | – |
| – | – | – | LPRKPTRAAT | Stability (T1/2 (h)) (HLA Class I molecules; allele B07.02, 37° C.): 3.7 h |
| – | – | 5.1 | CC[C@H](C)[C@H](NC(=O)[C@H](CC(C)C)NC(=O)[C@@H]1CCCN1C(=O)[C@H](Cc1ccccc1)NC(=O)[C@H](CC(C)C)NC(=O)[C@@H](N)CCC(=O)O)C(=O)N[C@@H](Cc1ccccc1)C(=O)N1CCC[C@H]1C(=O)N[C@@H](C)C(=O)O | – |
| 1760 | 6.6 | – | CC(C)C[C@H](NC(=O)[C@@H](NC(=O)[C@H](CC(=O)O)NC(=O)[C@H](CC(C)C)NC(=O)[C@@H](NC(=O)[C@@H](N)Cc1ccc(O)cc1)[C@@H](C)O)C(C)C)C(=O)N[C@@H](CCC(=O)O)C(=O)N[C@@H](CCCNC(=N)N)C(=O)N[C@@H](CS)C(=O)O | – |
| 728 | 0.3 | – | ALSASNSCF | – |
| 125 | – | 0.5 | RVAKIADFGM | Stability (T1/2 (h)) (HLA Class I molecules; allele B07.02, pMHC-I dissociation at 37° C.): 0.2 h |
| – | – | 0.2 | CC[C@H](C)[C@H](N)C(=O)N[C@@H](CCC(N)=O)C(=O)N[C@@H](CC(C)C)C(=O)N[C@@H](CCC(N)=O)C(=O)N[C@@H](CC(=O)O)C(=O)N[C@@H](CCCCN)C(=O)N[C@@H](Cc1ccccc1)C(=O)N[C@@H](CCC(=O)O)C(=O)N[C@@H](Cc1c[nH]cn1)C(=O)N[C@@H](CC(C)C)C(=O)O | – |
| – | – | – | CC(C)C[C@H](N)C(=O)N1CCC[C@H]1C(=O)N[C@@H](CCCNC(=N)N)C(=O)N[C@@H](CCCCN)C(=O)N1CCC[C@H]1C(=O)N[C@H](C(=O)N[C@@H](CCCNC(=N)N)C(=O)N[C@@H](C)C(=O)N[C@@H](C)C(=O)O)[C@@H](C)O | Stability (T1/2 (h)) (HLA Class I molecules; allele B07.02, 37° C.): 5.5 h |

| Molecule | IC50 (HLA class I molecule; allele A02.01) [nM] | Stability (T1/2 (h)) (HLA Class I molecules; allele A02.01, 37° C.) [h] | Stability (T1/2 (h)) (HLA Class I molecules; [3]) [h] | also measured |
| --- | --- | --- | --- | --- |
| YQQQQQSDL | 799 | 0.4 | – | IC50 (HLA class I molecule; allele B08.01): 18900 nM |
| LVVVGACGV | 1210 | 0.6 | – | – |
| YLGNHMNIA | 117 | 0.6 | – | IC50 (HLA class I molecule; allele B08.01): 872 nM |
| WLHKRGKYI | 1250 | – | 1.2 | IC50 (HLA class I molecule; allele B08.01): 417 nM; Stability (T1/2 (h)) (HLA Class I molecules; allele B08.01, pMHC-I dissociation at 37° C.): 1.3 h |
| MNIANLLGA | 128 | 0.3 | – | – |
| KLGGGQHGEV | 387 | – | 0.4 | – |
| CC(C)C[C@H](N)C(=O)N[C@H](C(=O)N[C@H](C(=O)N[C@H](C(=O)NCC(=O)N[C@@H](C)C(=O)N[C@H](C(=O)NCC(=O)N[C@H](C(=O)O)C(C)C)C(C)C)C(C)C)C(C)C)C(C)C | – | 0.6 | – | – |
| CC(C)C[C@H](NC(=O)[C@@H]1CCCN1C(=O)[C@H](CS)NC(=O)[C@H](CC(C)C)NC(=O)[C@H](Cc1c[nH]cn1)NC(=O)[C@H](CC(N)=O)NC(=O)CNC(=O)[C@H](CC(C)C)NC(=O)[C@@H](N)CO)C(=O)O | – | 3.5 | – | Stability (T1/2 (h)) (HLA Class I molecules; allele B08.01, 37° C.): 0.5 h |
